# Test system: 885724-159-R-J1-PDC complex spheroid viability
# Assay: Anticancer human tumor 885724-159-R-J1-PDC patient-derived pancreatic adenocarcinoma cell line growth inhibition [POLQ]
# Settings: for IC50: curve of first compound; for viability, T/C: stronger effect = lower value
# Protocol: Multicellular complex tumor spheroid response to Polymerase (POL) inhibitors (novobiocin, ART-558, RP6685) in combination with a variety of drugs and investigational agents in selected tumor cell lines
# The POL inhibitors (novobiocin, ART-558, and RP6685) were evaluated both individually and in combination with standard of care and investigational anticancer small molecules within a complex spheroid model of solid tumors. . Complex spheroids include a stromal component modeled by human endothelial cells (HUVEC) and fibroblasts modeled by human mesenchymal stem cells (MSCs). The concentration ranges selected for each drug and investigational agent were based upon clinically achievable concentrations if the clinical Cmax of the agent was known.
# Compounds. The drugs and investigational agents: novobiocin (NSC847541), ART-558 (NSC835418), RP-6685 (NSC848927), peposertib (NSC802822), ceralasertib (NSC780249), elimusertib (NSC800525), camonsertib (NSC841442), AZD-1390 (NSC803789), olaparib (NSC753686), talazoparib (NSC767125), rucaparib (NSC756644), sotorasib (NSC818433), MRTX-1133 (NSC836407), SN-38 (NSC673596), topotecan (NSC609699), epotoside (NSC141540), doxorubicin (NSC123127), gemcitabine (NSC613327), 5-fluorouracil (NSC19893), paclitaxel (NSC125973), vemurafenib (NSC761431), MSA-2 (NSC828583), SN-011 (NSC837082), adavosertib (NSC754352), prexasertib (NSC758257), carboplatin (NSC241240) and oxaliplatin (NSC266046), were obtained from the National Cancer Institute (NCI) Developmental Therapeutics Program Chemical Repository (21). The FDA-approved anticancer drug set is available from the Developmental Therapeutics Program at https://dtp.cancer.gov/organization/dscb/obtaining/. […] The stock solutions were prepared in dimethyl sulfoxide (DMSO, Sigma-Aldrich, St. Louis, MO, cat. D2650), except for the platinum compounds which were prepared in saline (Quality Biological, Gaithersburg, MD, cat. 114-055-101), at 800-fold the tested concentration and stored at -70 degrees C prior to their use. All drugs and investigational agents were tested over a range starting from a high concentration at or near the clinical Cmax and decreasing in half-log increments. If the clinical Cmax for an agent had not been determined, the highest concentration tested was 10 microM, except for SN-38, which was tested at a high concentration of 1 microM.
# Cell Culture. All cells were maintained in an incubator at 37 degrees C and 5% CO2 with 95% humidity. The PDC lines were cultured according to standard operating procedures established by the NCI PDMR (https://pdmr.cancer.gov). Table 3 of the manuscript, lists the cell lines along with the number of the three cell types plated to form the mct-spheroids and media for tumor cell growth. After thawing, all PDC lines, except 997537-175-T-J1-PDC and 415267-285-R-J2-PDC, were cultured in Matrigel-coated flasks prepared with a working solution of 1X Ham's F-12 nutrient mix, without supplementation (Thermo Fisher Scientific, cat. 11765054), 100 U/mL penicillin-streptomycin (Thermo Fisher Scientific, cat. 15140122), and 2.5% Matrigel (Corning Inc., Corning, NY, cat. 354248) for the first three passages. The two PDC lines 997537-175-T-J1-PDC and 415267-285-R-J2-PDC were cultured on uncoated flasks. The 857933-349-R-J2-PDC line was cultured in 6C/Colon 1B media containing advanced DMEM/F-12 (Thermo Fisher Scientific, cat. 12634028), 10 mM HEPES (Thermo Fisher Scientific, cat. 15630080), 1X GlutaMAX supplement (Thermo Fisher Scientific, cat. 35050061), 0.1 mg/mL primocin (InvivoGen, San Diego, CA, cat. ant-pm-2), 10% defined fetal bovine serum, heat inactivated (HyClone Laboratories Inc., Logan, UT, cat. SH30070.03HI), 50% L-WRN conditioned media (ATCC, cat. CRL-3276), 1.25 mM N-Acetyl-L-cysteine (Sigma-Aldrich, cat. A9165), 10 mM nicotinamide (Sigma-Aldrich, cat. N0636), 1X B-27 supplement (Thermo Fisher Scientific, cat. 17504044), 1X N-2 supplement (Thermo Fisher Scientific, cat. […]
# [1] = second compound 0.0316 µM, first compound 0.0316 µM
# [2] = second compound 0.0316 µM, first compound 0.1 µM
# [3] = second compound 0.0316 µM, first compound 0.316 µM
# [4] = second compound 0.0316 µM, first compound 1 µM
# [5] = second compound 0.1 µM, first compound 0.0316 µM
# [6] = second compound 0.1 µM, first compound 0.1 µM
# [7] = second compound 0.1 µM, first compound 0.316 µM
# [8] = second compound 0.1 µM, first compound 1 µM
# [9] = second compound 0.316 µM, first compound 0.0316 µM
# [10] = second compound 0.316 µM, first compound 0.1 µM
# [11] = second compound 0.316 µM, first compound 0.316 µM
# [12] = second compound 0.316 µM, first compound 1 µM
# [13] = second compound 1 µM, first compound 0.0316 µM
# [14] = second compound 1 µM, first compound 0.1 µM
# [15] = second compound 1 µM, first compound 0.316 µM
# [16] = second compound 1 µM, first compound 1 µM
# [17] = second compound 3.16 µM, first compound 0.0316 µM
# [18] = second compound 3.16 µM, first compound 0.1 µM
# [19] = second compound 3.16 µM, first compound 0.316 µM
# [20] = second compound 3.16 µM, first compound 1 µM
# [21] = second compound 10 µM, first compound 0.0316 µM
# [22] = second compound 10 µM, first compound 0.1 µM
# [23] = second compound 10 µM, first compound 0.316 µM
# [24] = second compound 10 µM, first compound 1 µM
# 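Further: spheroids exposed to compounds for 7 days.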
compound,measurement,setting,value
O=C(Nc1ccc(O)c(NS(=O)(=O)c2ccc(F)cc2)c1)c1ccc(-c2ccccc2)cc1 + COC1C(OC(N)=O)C(O)C(Oc2ccc3c(O)c(NC(=O)c4ccc(O)c(CC=C(C)C)c4)c(=O)oc3c2C)OC1(C)C,IC50,second compound 0.0316 µM,> 10000 nM
same,IC50,second compound 0.1 µM,> 10000 nM
same,IC50,second compound 0.316 µM,> 10000 nM
same,IC50,second compound 1 µM,> 10000 nM
same,IC50,second compound 3.16 µM,> 10000 nM
same,IC50,second compound 10 µM,> 10000 nM
same,"viability, T/C",[1],90.9%
same,"viability, T/C",[2],91.9%
same,"viability, T/C",[3],92.7%
same,"viability, T/C",[4],102%
same,"viability, T/C","second compound 0.0316 µM, first compound 3.16 µM",98.6%
same,"viability, T/C","second compound 0.0316 µM, first compound 10 µM",72.9%
same,"viability, T/C",[5],104%
same,"viability, T/C",[6],96.7%
same,"viability, T/C",[7],98.1%
same,"viability, T/C",[8],104%
same,"viability, T/C","second compound 0.1 µM, first compound 3.16 µM",109%
same,"viability, T/C","second compound 0.1 µM, first compound 10 µM",72.7%
same,"viability, T/C",[9],105%
same,"viability, T/C",[10],95.6%
same,"viability, T/C",[11],90%
same,"viability, T/C",[12],107%
same,"viability, T/C","second compound 0.316 µM, first compound 3.16 µM",106%
same,"viability, T/C","second compound 0.316 µM, first compound 10 µM",87.3%
same,"viability, T/C",[13],107%
same,"viability, T/C",[14],96%
same,"viability, T/C",[15],95%
same,"viability, T/C",[16],100%
same,"viability, T/C","second compound 1 µM, first compound 3.16 µM",102%
same,"viability, T/C","second compound 1 µM, first compound 10 µM",71.4%
same,"viability, T/C",[17],96.6%
same,"viability, T/C",[18],92%
same,"viability, T/C",[19],95.1%
same,"viability, T/C",[20],94.1%
same,"viability, T/C","second compound 3.16 µM, first compound 3.16 µM",101%
same,"viability, T/C","second compound 3.16 µM, first compound 10 µM",84.1%
same,"viability, T/C",[21],94.8%
same,"viability, T/C",[22],97.3%
same,"viability, T/C",[23],94.6%
same,"viability, T/C",[24],97.1%
same,"viability, T/C","second compound 10 µM, first compound 3.16 µM",108%
same,"viability, T/C","second compound 10 µM, first compound 10 µM",75.8%
C=CCn1c(=O)c2cnc(Nc3ccc(N4CCN(C)CC4)cc3)nc2n1-c1cccc(C(C)(C)O)n1 + Cc1cccc(N(C)C(=O)C2C(O)CCN2c2nc(C)cc(C(F)(F)F)c2C#N)c1,IC50,second compound 0.0316 µM,> 1000 nM
same,IC50,second compound 0.1 µM,771 nM
same,IC50,second compound 0.316 µM,435 nM
same,IC50,second compound 1 µM,856 nM
same,IC50,second compound 3.16 µM,> 1000 nM
same,IC50,second compound 10 µM,817 nM
same,"viability, T/C","second compound 0.0316 µM, first compound 0.00316 µM",101%
same,"viability, T/C","second compound 0.0316 µM, first compound 0.01 µM",95.6%
same,"viability, T/C",[1],84.9%
same,"viability, T/C",[2],72.6%
same,"viability, T/C",[3],56.5%
same,"viability, T/C",[4],51.1%
same,"viability, T/C","second compound 0.1 µM, first compound 0.00316 µM",105%
same,"viability, T/C","second compound 0.1 µM, first compound 0.01 µM",98%
same,"viability, T/C",[5],93%
same,"viability, T/C",[6],77.2%
same,"viability, T/C",[7],59.9%
same,"viability, T/C",[8],47.2%
same,"viability, T/C","second compound 0.316 µM, first compound 0.00316 µM",98.6%
same,"viability, T/C","second compound 0.316 µM, first compound 0.01 µM",97.9%
same,"viability, T/C",[9],93.7%
same,"viability, T/C",[10],73%
same,"viability, T/C",[11],53.3%
same,"viability, T/C",[12],43.6%
same,"viability, T/C","second compound 1 µM, first compound 0.00316 µM",101%
same,"viability, T/C","second compound 1 µM, first compound 0.01 µM",93.8%
same,"viability, T/C",[13],88.9%
same,"viability, T/C",[14],70.1%
same,"viability, T/C",[15],55%
same,"viability, T/C",[16],49.4%
same,"viability, T/C","second compound 3.16 µM, first compound 0.00316 µM",92.2%
same,"viability, T/C","second compound 3.16 µM, first compound 0.01 µM",96.5%
same,"viability, T/C",[17],94.2%
same,"viability, T/C",[18],77.7%
same,"viability, T/C",[19],61.6%
same,"viability, T/C",[20],50%
same,"viability, T/C","second compound 10 µM, first compound 0.00316 µM",103%
same,"viability, T/C","second compound 10 µM, first compound 0.01 µM",84.8%
same,"viability, T/C",[21],98.2%
same,"viability, T/C",[22],82.7%
same,"viability, T/C",[23],61.6%
same,"viability, T/C",[24],47.5%
